# Test results: BindingDB's records for doi:10.1007/bf00572436 (1985)
# Molecular target: T1, Adenosine receptor A1 (Bos taurus, UniProt P28190)
# T1 sequence (P28190 whole entry): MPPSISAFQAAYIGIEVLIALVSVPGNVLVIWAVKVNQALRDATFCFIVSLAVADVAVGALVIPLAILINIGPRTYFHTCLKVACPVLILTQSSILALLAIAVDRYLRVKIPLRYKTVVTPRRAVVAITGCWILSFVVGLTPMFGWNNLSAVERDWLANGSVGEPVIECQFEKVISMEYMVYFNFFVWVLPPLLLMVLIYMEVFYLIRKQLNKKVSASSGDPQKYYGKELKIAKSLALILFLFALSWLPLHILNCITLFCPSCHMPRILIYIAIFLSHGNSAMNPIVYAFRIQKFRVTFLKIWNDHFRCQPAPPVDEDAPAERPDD
row,SMILES,Ki [µM]
1,Cn1c(=O)c2c(ncn2C)n(C)c1=O,> 10
2,"Cn1c(=O)[nH]c2ncn(C)c2c1=O [1,7-dimethylxanthine]",> 10
3,CC(=O)CCCCn1c(=O)c2c(ncn2C)n(C)c1=O [1-(5-Oxohexyl)theobromine (pentoxifylline)],> 10
4,"CC(C)Cn1c(=O)n(C)c(=O)c2[nH]cnc21 [1-methyl-3-(2-methylpropyl)-2,3,6,7-tetrahydro-1H-purine-2,6-dione]",2.5
5,CCCn1c(=O)[nH]c(=O)c2[nH]cnc21 [3-Propylxanthine (enprofylline)],> 10
6,"CC(O)Cn1cnc2c1c(=O)n(C)c(=O)n2C (stereo unspecified) [7-(2-Hydroxy-propyl)-1,3-dimethyl-3,7-dihydro-purine-2,6-dione(Proxyphylline)]",> 10
7,CC(=O)Oc1ccc(-c2nc3c([nH]2)c(=O)n(C)c(=O)n3C)cc1 [8-(4-Acetoxyphenyl)theophylline],0.023
8,"Cn1c(=O)c2nc(-c3ccc(O)cc3)[nH]c2n(C)c1=O [8-(4-Hydroxy-phenyl)-1,3-dimethyl-3,7-dihydro-purine-2,6-dione]",0.0034
9,"CCCn1c(=O)c2nc(-c3ccc(O)cc3)[nH]c2n(CCC)c1=O [8-(4-Hydroxy-phenyl)-1,3-dipropyl-3,9-dihydro-purine-2,6-dione]",0.0032
10,Cn1c(=O)c2c(ncn2CCO)n(C)c1=O [BETA-HYDROXYETHYL THEOPHYLLINE],> 10
11,Cn1c(=O)c2c(ncn2C[C@H](O)CO)n(C)c1=O [Diprophylline],> 10
12,O=c1[nH]c(=O)c2[nH]cnc2[nH]1 [NSC_1188],> 10
13,CCN(CC)CCn1cnc2c1c(=O)n(C)c(=O)n2C [NSC_28329],> 10
14,CC(O)Cn1c(=O)c2c(ncn2C)n(C)c1=O (stereo unspecified) [NSC_66120],> 10
15,CCCn1c(=O)c2[nH]c(-c3ccc(Cl)cc3N)nc2n(CCC)c1=O [NSC_92411],0.0003
16,Cn1cnc2c1c(=O)[nH]c(=O)n2C [theobromine],> 10
